The values below come from patent publication US20090270435A1 (priority 2006, published 2009).

Structures can show the parent of a compound that is named as a salt.

In one assay the target is T1, ACC1 from rat liver (Rattus norvegicus, UniProt P11497).
T1 construct: The livers (for ACC1 preparation) or skeletal muscle tissue (for ACC2 preparation) are removed; from tissue; host or cells: liver of male CD rats (fasted, then fed a high sucrose diet)
As to the kind of experiment: Direct inhibition of ACC1 activity (14C-bicarbonate incorporation). In kind it is biochemical. The settings on record: ACC1 from rat liver. In short, it runs like this: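 ACC1 partially purified from livers of fasted/sucrose-refed male rats by PEG and ammonium sulfate fractionation, then preincubated 30 min at 37°C with 10 mM citrate and 1.0 mM MgCl2. Reaction ran 7 min at 37°C, stopped with HCl; acid-stable radioactivity counted by scintillation; HCl-first tubes served as blanks.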
`COc1cccc2c1C(=O)CC1(CCN(C(=O)c3ccc4[nH]c(C)c(C)c4c3)CC1)O2` [Ex. L11, 1′-[(2,3-dimethyl-1H-indol-5-yl)carbonyl]-5-methoxyspiro[chromene-2,4′-piperidin]-4(3H)-one] gave an IC50 of 0.113 µM.
Still for that read-out and setting: then `O=C1CC2(CCN(C(=O)c3ccc4c(Cl)c[nH]c4c3)CC2)Oc2ccc(Cl)cc21` [Ex. L7, 6-chloro-1′-[(3-chloro-1H-indol-6-yl)carbonyl]spiro[chromene-2,4′-piperidin]-4(3H)-one], with 0.183 µM; and `Cc1cc2c(cc1C)C(=O)CC1(CCN(C(=O)c3cccc4cc[nH]c34)CC1)O2` [Ex. L1, 1′-(1H-indol-7-ylcarbonyl)-6,7-dimethylspiro[chromene-2,4′-piperidin]-4(3H)-one trifluoroacetic acid salt], with 0.19 µM.
The same measure, in the same setting: then `Cc1cc2c(cc1Cl)C(=O)CC1(CCN(C(=O)c3cccc4cn[nH]c34)CC1)O2` [Ex. H5, 6-chloro-1′-(1H-indazol-7-ylcarbonyl)-7-methylspiro[chromene-2,4′-piperidin]-4(3H)-one], with 0.321 µM; and `CCc1cc(C(=O)N2CCC3(CC2)CC(=O)c2cc(C)c(C)cc2O3)cc2cn[nH]c12` [Ex. C1, 1′-[(7-ethyl-1H-indazol-5-yl)carbonyl]-6,7-dimethylspiro[chromene-2,4′-piperidin]-4(3H)-one], with 0.0175 µM.
`Cc1cc2c(cc1C)C(=O)CC1(CCN(C(=O)c3ccc4c(c3)nnn4C)CC1)O2` [Ex. L41, 6,7-dimethyl-1′-[(1-methyl-1H-1,2,3-benzotriazol-5-yl)carbonyl]spiro[chromene-2,4′-piperidin]-4(3H)-one]: the IC50 was less than 3 µM.
Same read-out and setting: then `CCc1cc(C(=O)N2CCC3(CC2)CC(=O)c2cc(Cl)c(C)cc2O3)cc2cn[nH]c12` [Ex. C4, 6-chloro-1′-[(7-ethyl-1H-indazol-5-yl)carbonyl]-7-methylspiro[chromene-2,4′-piperidin]-4(3H)-one], with 0.0306 µM.
The compound `Cc1cc2c(cc1C)C(=O)CC1(CCN(C(=O)c3ccc4ncccc4c3)CC1)O2` [Ex. L43, 6,7-dimethyl-1′-(quinolin-6-ylcarbonyl)spiro[chromene-2,4′-piperidin]-4(3H)-one trifluoroacetic acid salt] displayed a 50% inhibitory concentration (IC50) of 0.121 µM.
Same read-out and setting: then `COc1cc2c(c(OC)c1OC)C(=O)CC1(CCN(C(=O)c3cccc4cn[nH]c34)CC1)O2` [Ex. H11, 1′-(1H-indazol-7-ylcarbonyl)-5,6,7-trimethoxyspiro[chromene-2,4′-piperidin]-4(3H)-one], with 0.756 µM; and `O=C1CC2(CCN(C(=O)c3cccc4cn[nH]c34)CC2)Oc2c(Cl)cc(Cl)cc21` [Ex. H22, 6,8-dichloro-1′-(1H-indazol-7-ylcarbonyl)spiro[chromene-2,4′-piperidin]-4(3H)-one], with 2.66 µM; and `COc1ccc2c(c1)C(=O)CC1(CCN(C(=O)c3ccc4c(C)n[nH]c4c3)CC1)O2` [Ex. F2, 6-methoxy-1′-[(3-methyl-1H-indazol-yl)carbonyl]spiro[chromene-2,4′-piperidin]-4(3H)-one], with 0.0492 µM.
“5,7-dichloro-1′-[(7-chloro-1H-indazol-5-yl)carbonyl]spiro[chromene-2,4′-piperidin]-4(3H)-one [Ex. B9]”: 0.18 µM corresponded to half-maximal inhibition (IC50).
Still for that read-out and setting: then `Cc1cc2c(cc1C)C(=O)CC1(CCN(C(=O)c3ccc4cn[nH]c4c3)CC1)O2` [Ex. G1, 1-(1H-indazol-6-ylcarbonyl)-6,7-dimethylspiro[chromene-2,4′-piperidin]-4(3H)-one trifluoroacetic acid salt], with 0.271 µM; and `Cc1cc(C(=O)N2CCC3(CC2)CC(=O)c2cc(C(F)(F)F)ccc2O3)cc2cn[nH]c12` [Ex. A20, 1′-[(7-methyl-1H-indazol-5-yl)carbonyl]-6-(trifluoromethyl)spiro[chromene-2,4′-piperidin]-4(3H)-one], with 0.0966 µM; and `Cc1cc(C(=O)N2CCC3(CC2)CC(=O)c2cc(F)c(Cl)cc2O3)cc2cn[nH]c12` [Ex. A22, 7-chloro-6-fluoro-1′-[(7-methyl-1H-indazol-5-yl)carbonyl]spiro[chromene-2,4′-piperidin]-4(3H)-one], with 0.104 µM.
Still for that read-out and setting: the figure for `Cc1cc2c(cc1C)C(=O)CC1(CCN(C(=O)c3ccc4c(c3)ncn4C)CC1)O2` [Ex. L23, 6,7-dimethyl-1′-[(1-methyl-1H-benzimidazol-5-yl)carbonyl]spiro[chromene-2,4′-piperidin]-4(3H)-one trifluoroacetic acid salt] is 1.17 µM; for `Cc1cc2c(cc1C)C(=O)CC1(CCN(C(=O)c3ccc4c(c3)nc(N3CCCC3)n4C)CC1)O2` [Ex. L29, 6,7-dimethyl-1′-[(1-methyl-2-pyrrolidin-1-yl-1H-benzimidazol-5-yl)carbonyl]spiro[chromene-2,4′-piperidin]-4(3H)-one] it is 0.13 µM; for `Cc1cc2c(cc1C)C(=O)CC1(CCN(C(=O)c3ccc4[nH]cc(Cl)c4c3)CC1)O2` [Ex. L9, 1′-[(3-chloro-1H-indol-5-yl)carbonyl]-6,7-dimethylspiro[chromene-2,4′-piperidin]-4(3H)-one] it is 0.0438 µM.
Still for that read-out and setting: then `Cc1cc2c(cc1Br)C(=O)CC1(CCN(C(=O)c3cccc4cn[nH]c34)CC1)O2` [Ex. H3, 6-bromo-1′-(1H-indazol-7-ylcarbonyl)-7-methylspiro[chromene-2,4′-piperidin]-4(3H)-one], with 0.264 µM.

The assay is the same for the next values; noted with them: Table of Examples M1-M36.
As for `O=C1CC2(CCN(C(=O)c3cccc(-c4cc[nH]n4)c3)CC2)Oc2ccc(C(F)(F)F)cc21` [Ex. M19, 1′-[3-(1H-pyrazol-3-yl)benzoyl]-6-(trifluoromethyl)spiro[chromene-2,4′-piperidin]-4(3H)-one], the IC50 came out at 0.418 µM. This counts as sub-micromolar.
On the same count and under the same terms, then `CN(C)C(=O)c1ccc2c(c1)C(=O)CC1(CCN(C(=O)c3cccc(-c4cc[nH]n4)c3)CC1)O2` [Ex. M29, N,N-dimethyl-4-oxo-1′-[3-(1H-pyrazol-3-yl)benzoyl]-3,4-dihydrospiro[chromene-2,4′-piperidine]-6-carboxamide], with 0.574 µM; and `COc1cc2c(cc1OC)C(=O)CC1(CCN(C(=O)c3cccc(-c4cc[nH]n4)c3)CC1)O2` [Ex. M31, 6,7-Dimethoxy-1′-[3-(1H-pyrazol-3-yl)benzoyl]spiro[chromene-2,4′-piperidin]-4(3H)-one], with 0.697 µM; and `O=C1CC2(CCN(C(=O)c3cccc(-c4cc[nH]n4)c3)CC2)Oc2c(Cl)cc(Cl)cc21` [Ex. M35, 6,8-dichloro-1′-[3-(1H-pyrazol-3-yl)benzoyl]spiro[chromene-2,4′-piperidin]-4(3H)-one], with 1.4 µM.

The assay is the same for the next values; noted with them: Table of Examples P1-P15.
`Cc1cc2c(cc1C)C(=O)CC1(CCN(C(=O)c3cc(-c4cc[nH]n4)ccc3O)CC1)O2` [Ex. P6, 1′-[2-hydroxy-5-(1H-pyrazol-3-yl)benzoyl]-6,7-dimethylspiro[chromene-2,4′-piperidin]-4(3H)-one trifluoroacetic acid salt] came in with an IC50 of less than 3 µM.
